Measured values reported in patent US10239881B2, “RIPK2 inhibitors and method of treating cancer with same” (University Health Network, priority 2014, dated 2019).

How the values were obtained:
[1] = system: mouse bone marrow dendritic cells; assay: Dendritic cell viability by 7AAD exclusion; assay type: cell-based; conditions: stimulated 24 hours with LPS or Pam3Cys ± 1 μg/ml MDP
Method: (§1) IL-12-yellow fluorescent protein (YFP) reporter mouse bone marrow dendritic cells were stimulated for 24 hours with 0.3 ng/ml LPS±1 μg/ml MDP (i.e., NOD2 agonist) in the presence of Example A3 (FIG. 2A). IL-12-yellow fluorescent protein (YFP) reporter mouse bone marrow dendritic cells were stimulated for 24 hours with 0.3 μg/ml Pam3Cys±1 μg/ml MDP (i.e., NOD2 agonist) in the presence of Example A3 (FIG. 2B). […] Data are represented as the mean±SEM of triplicate measurements. Levels of IL-12 p70 (FIG. 2C, left panel) and TNFα (FIG. 2C, right panel) in the cell culture supernatants from A were measured by ELISA techniques with commercially available kits. […] Data are represented as the mean±SEM of triplicate measurements.

[2] = biological target: human RIPK2 kinase (Homo sapiens (Human), UniProt O43353); assay: RIPK2 inhibition assay (indirect ELISA); assay type: biochemical; conditions: His-RIPK2 0.6 nM, 6 μM ATP; read-out: RIPK2 IC50 range
Method: Active RIPK2 was purchased from Life Technologies as His-tagged of catalityc domain (amin acids 1-299) of human RIPK2 kinase expressed in insect cells. Amino terminal 6 histidine, sumo tagged human TTK (residues 1-275) was expressed in E. coli, and purified to >95% homogeneity by Ni^2+ agarose, gel filtration, and ion exchange chromatography.
RIPK2 activity was measured using an indirect ELISA detection system. His—RIPK2 (0.6 nM) was incubated in the presence of 6 μM ATP (Sigma cat # A7699), 20 mM Hepes, pH 7.5, 1 mM EGTA, 2.5 mM MgCl2, 2.5 mM MnCl2 and 0.01% Triton X-100 in a 96 well microtitre plate pre-coated with amino terminal 6 histidine, sumo tagged TTK (amino acid residues 1-275). The reaction was allowed to proceed for 30 minutes, followed by 5 washes of the plate with Wash Buffer (phosphate buffered saline supplemented with 0.2% Tween 20), and incubation for 30 minutes with a 1:3000 dilution of primary antibody (Cell Signaling cat #9381). The plate was washed 5 times with Wash Buffer, incubated for 30 minutes in the presence of secondary antibody coupled to horse radish peroxidase (BioRad cat #1721019, 1:3000 concentration), washed an additional 5 times with Wash Buffer, and incubated in the presence of TMB substrate (Sigma cat # T0440). The colorimetric reaction was allowed to continue for 5 minutes, followed by addition of stop solution (0.5 N H2SO4), and quantified by detection at 450 nm with either a monoChromatic or filter based plate reader (Molecular Devices M5 or Beckman DTX880, respectively).
Compound inhibition was determined at either a fixed concentration (10 μM) or at a variable inhibitor concentration (typically 50 μM to 0.1 μM in a 10 point dose response titration). Compounds were pre-incubated in the presence of enzyme for 15 minutes prior to addition of ATP and the activity remaining quantified using the above described activity assay. The % Inhibition of a compound was determined using the following formula; % Inhibition=100×(1−(experimental value−background value)/(high activity control−background value)). The IC50 value was determined using a non-linear 4 point logistic curve fit (XLfit4, IDBS) with the formula; (A+(B/(1+((x/C)^D)))), where A=background value, B=range, C=inflection point, D=curve fit parameter.

[3] = system: SKOV-3 ovarian cancer cells; assay: Sulforhodamine B cell growth inhibition assay; assay type: cell-based; conditions: Homo sapiens, SK-OV-3, 120 h; 5 days, SRB; read-out: Ovarian GI50 range SKOV-3
Method: (§2) Breast cancer cells (MDA-MB-231 and MDA-MB-468), colon cancer cells (HCT116 and HT-29) and ovarian cancer cells (SKOV-3 and OVCAR-3) were seeded (1000 to 4000 in 80 μL per well depending on the cell growth rate) into 96 well plates 24 hours before compound overlay. Compounds were prepared as 10 mM stock solutions in 100% DMSO which were diluted with DMEM (Dulbecco's Modified Eagle's Medium) cell growth Medium (Invitrogen, Burlington, ON, Canada) containing 10% FBS (Fetal Bovine Serum) to concentrations ranging from 50 nM to 250 μM. Aliquots (20 μL) from each concentration were overlaid to 80 μL of the pre-seeded cells in the 96 well plates to make final concentrations of 10 nM to 50 μM. The cells were cultured for 5 days before the Sulforhodamine B assay (SRB) was performed to determine the compound's cell growth inhibition activity.
(§3) The cells are fixed in situ by gently aspirating off the culture media and adding 50 μL ice cold 10% trichloroacetic acid per well and incubate at 4° C. for 30-60 min. The plates are washed with H2O five times and allowed to air dry for 5 min. Addition of 50 μL 0.4% (w/v) SRB solution in 1% (v/v) acetic acid to each well and incubation for 30 min at rt completes the staining reaction. Following staining, plates are washed four times with 1% acetic acid to remove unbound dye and then allowed to air dry for 5 min. The stain is solubilized with 100 μL of 10 mM Tris pH 10.5 per well. Absorbance is read at 570 nm. The percentage (%) of relative growth inhibition was calculated by comparing to DMSO treated only cells (100%). GI50's were determined for compounds with cytotoxic activity. The GI50 was calculated using GraphPad PRISM software (GraphPad Software, Inc., San Diego, Calif., USA). GI50 (growth inhibition) is the compound concentration that causes 50% inhibition of cell growth.
(§4) In Table 2 lists GI50 value ranges for compound examples against breast cancer cell lines (MDA-MB-231, MDA-MB-468), colon cancer cell lines (HCT116, HT-29) and ovarian cancer cell lines (OVCAR-3, SKOV-3) are given. […] The GI50 ranges are indicated as “A,” “B,” and “C,” for values less than or equal to 1 μM; those greater than 1 μM and less than or equal to 10 μM; and those greater than 10 μM, respectively.

[4] = system: MDA-MB-231 breast cancer cells; assay: Sulforhodamine B cell growth inhibition assay; assay type: cell-based; conditions: Homo sapiens, MDA-MB-231, 120 h; 5 days, SRB; read-out: Breast GI50 range MDA-MB-231
Method: as §2, §3, §4

[5] = system: MDA-MB-468 breast cancer cells; assay: Sulforhodamine B cell growth inhibition assay; assay type: cell-based; conditions: Homo sapiens, MDA-MB-468, 120 h; 5 days, SRB; read-out: Breast GI50 range MDA-MB-468
Method: as §2, §3, §4

[6] = system: HCT116 colon cancer cells; assay: Sulforhodamine B cell growth inhibition assay; assay type: cell-based; conditions: Homo sapiens, HCT-116, 120 h; 5 days, SRB; read-out: Colon GI50 range HCT116
Method: as §2, §3, §4

[7] = system: OVCAR-3 ovarian cancer cells; assay: Sulforhodamine B cell growth inhibition assay; assay type: cell-based; conditions: Homo sapiens, OVCAR-3, 120 h; 5 days, SRB; read-out: Ovarian GI50 range OVCAR-3
Method: as §2, §3, §4

[8] = system: HT-29 colon cancer cells; assay: Sulforhodamine B cell growth inhibition assay; assay type: cell-based; conditions: Homo sapiens, HT-29, 120 h; 5 days, SRB; read-out: Colon GI50 range HT29
Method: as §2, §3, §4

[9] = system: IL-12 p70; assay: IL-12 p70 in dendritic cell culture supernatants by ELISA; assay type: cell-based, mouse; conditions: 0.3 ng/ml LPS ± 1 μg/ml MDP, 24 hours
Method: as §1

[10] = system: TNFα; assay: TNFα in dendritic cell culture supernatants by ELISA; assay type: cell-based, mouse; conditions: 0.3 ng/ml LPS ± 1 μg/ml MDP, 24 hours
Method: as §1

[11] = system: IL-12-yellow fluorescent protein (YFP) reporter mouse bone marrow dendritic cells; assay: IL-12-YFP reporter dendritic cells, flow cytometric analysis; assay type: cell-based; conditions: stimulated 24 hours with LPS or Pam3Cys ± 1 μg/ml MDP
Method: FIGS. 2(A)-(C) are graphs illustrating the effects of compound A3 on cytokine production by dendritic cells.
as §1

human RIPK2 kinase, sequence (O43353 1-299): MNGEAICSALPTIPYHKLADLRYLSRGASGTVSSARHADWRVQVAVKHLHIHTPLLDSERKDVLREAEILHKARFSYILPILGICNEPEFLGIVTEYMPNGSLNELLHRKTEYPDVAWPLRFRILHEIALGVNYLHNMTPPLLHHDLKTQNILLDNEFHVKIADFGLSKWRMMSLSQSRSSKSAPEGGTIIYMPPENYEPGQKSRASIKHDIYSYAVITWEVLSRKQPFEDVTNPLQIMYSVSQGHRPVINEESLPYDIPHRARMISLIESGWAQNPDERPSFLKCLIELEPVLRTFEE

Row | IC50 [2] [µM] | GI50 [3] [µM] | GI50 [4] [µM] | GI50 [5] [µM] | GI50 [6] [µM] | GI50 [7] [µM] | GI50 [8] [µM] | Compound | cell viability as assessed by 7AAD exclusion [1] | levels of IL-12 p70 in cell culture supernatants [9] | levels of TNFα in cell culture supernatants [10] | percentage of YFP positive cells (percentage of IL-12 positive cells) [11] | mean fluorescence intensity YFP (amount of IL-12) ([11]; MDP-dependent)
1 | ≤ 0.1 | ≤ 1 | ≤ 1 | ≤ 1 | ≤ 1 | ≤ 1 | ≤ 1 | Cc1ccccc1-c1cc2nc(Nc3cccc(N4CCOCC4)c3)ncc2[nH]1 [Example A3, N-(3-morpholinophenyl)-6-(o-tolyl)-5H-pyrrolo[3,2-d]pyrimidin-2-amine] | no measurable effect | dose-dependent reduction | dose-dependent reduction | minimal effect | dose-dependent reduction
2 | ≤ 0.1 | 1 to 10 | ≤ 1 | ≤ 1 | ≤ 1 | ≤ 1 | ≤ 1 | Cc1ccccc1-c1cc2nc(Nc3cccc(N4CCN(C)CC4)c3)ncc2[nH]1 [Example A4, N-(3-(4-methylpiperazin-1-yl)phenyl)-6-(o-tolyl)-5H-pyrrolo[3,2-d]pyrimidin-2-amine] |  |  |  |  | 
3 | ≤ 0.1 | ≤ 1 | 1 to 10 | 1 to 10 | 1 to 10 | ≤ 1 | 1 to 10 | Cc1cccc(C)c1-c1cc2nc(Nc3cccc(N4CCOCC4)c3)ncc2[nH]1 [Example A12, 6-(2,6-dimethylphenyl)-N-(3-morpholinophenyl)-5H-pyrrolo[3,2-d]pyrimidin-2-amine] |  |  |  |  | 
4 | 0.1 to 0.5 | ≤ 1 | ≤ 1 | ≤ 1 | ≤ 1 | ≤ 1 | ≤ 1 | Fc1ccccc1-c1cc2nc(Nc3cccc(N4CCOCC4)c3)ncc2[nH]1 [Example A13, 6-(2-fluorophenyl)-N-(3-morpholino-phenyl)-5H-pyrrolo[3,2-d]pyrimidin-2-amine] |  |  |  |  | 
